According to patent US20160221944A1, “PYRROLIDINE DERIVATIVES AS OXYTOCIN/VASOPRESSIN V1a RECEPTORS ANTAGONISTS” (ObsEva S.A., priority 2013, published 2016):

Tests used:
[1] = tested on: spontaneous uterine contractions; assay: Inhibition of spontaneous uterine contractions in anesthetized late-term pregnant rat; type: in vivo; conditions: oral, 10, 30 or 60 mg/kg; at any time during the 170-180 minutes observation
From the text: Late-term pregnant (certified at days 19-21 of pregnancy) Sprague Dawley CD (SD) BR female rats (Charles River, Calco, Italy), weighing 350-400 g were anesthetized with urethane (1.05 g/kg, i.p.) and placed on a homeothermic operating table. A midline incision at the hypogastrium level was made, one pregnant uterine horn exposed and its tubal end (near the ovary) was closed by a ligature with surgical silk. […] After the surgical preparation, a 30-min stabilization period was observed and then the effects of increasing doses of compounds of the present invention (given as 10-min i.v. infusion, bolus i.v. or p.o.) were evaluated by measuring the resulting uterine contractions. For the i.v. administration (infusion or bolus) the uterine contractile activity was quantified by calculating the AUC during the 10-min injection period. The percent variation of the AUC values relative to the spontaneous uterine response observed after each compound administration was calculated in comparison to the value recorded before the first dose-administration (basal value). The effect of test compounds of the present invention was evaluated by comparing pre- and post-treatment luminal uterine pressure values. […] Statistical differences between treatment groups at each time-point were determined by using one-way ANOVA followed by Tukey test. […]

[2] = Qualitative solubility/crystallisation tests on 15 mg scale; type: physicochemical
[3] = In vivo stability: isomeric interconversion after single oral and intravenous doses in rats; parameters: species or system rat; conditions: female rats
Protocol: The animals used in this study were Sprague-Dawley, Crl: CD®BR albino rats. All animals were supplied by Charles River UK Ltd (Margate, Kent, UK). Animals were in the weight range 200-260 g and were approximately 2 months old. Rats were given a unique identity number and were identified by unique tail markings plus cage location.
The dose groups were as follows: 4 female were given an oral dose and 4 female were given an intravenous dose.
(§1) Dose formulations were prepared in an appropriate matrix; intravenous doses were prepared in NP3S, whilst oral doses were prepared in Labrasol:water (1:1 v/v).

[4] = Isomeric interconversion in dose formulations (HPLC); type: physicochemical; conditions: oral (Labrasol:water 1:1) and intravenous (NP3S) dose formulations, pre- and post-dose
Protocol: as §1

vasopressin V1a receptor = vasopressin V1a receptor (Homo sapiens, UniProt P37288); assay: Binding to vasopressin V1a receptor; conditions: read-out: inhibition constant Ki to the vasopressin V1a receptor
vasopressin V1a receptor, sequence (P37288 whole entry, species assumed): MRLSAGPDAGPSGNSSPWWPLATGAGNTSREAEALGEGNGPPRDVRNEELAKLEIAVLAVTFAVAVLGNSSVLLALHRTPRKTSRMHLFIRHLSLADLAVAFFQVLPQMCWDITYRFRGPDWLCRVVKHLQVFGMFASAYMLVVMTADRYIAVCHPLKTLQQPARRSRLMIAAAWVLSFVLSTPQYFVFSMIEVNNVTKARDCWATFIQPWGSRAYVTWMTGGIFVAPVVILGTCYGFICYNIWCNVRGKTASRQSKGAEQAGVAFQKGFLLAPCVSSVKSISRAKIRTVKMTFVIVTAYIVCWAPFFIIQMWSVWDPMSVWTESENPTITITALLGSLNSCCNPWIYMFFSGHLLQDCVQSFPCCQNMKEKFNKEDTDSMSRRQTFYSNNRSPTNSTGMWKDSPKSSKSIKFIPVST

**Q.** For `CO/N=C1\C[C@@H](CO)N(C(=O)c2ccc(-c3ccccc3C)cc2)C1` [(3E,5S)-5-(hydroxymethyl)-1-[(2′-methyl-1,1′-biphenyl-4-yl)carbonyl]pyrrolidin-3-one O-methyloxime], which “inhibition of uterine contraction” value [1] is on record?
**A.** no inhibition

**Q.** Which “Qualitative solubility, Dissolves in:” value ([2]; DIPE, hot) does the source give for `CO/N=C1/C[C@@H](CO)N(C(=O)c2ccc(-c3ccccc3C)cc2)C1` [(3Z,5S)-5-(hydroxymethyl)-1-[(2′-methyl-1,1′-biphenyl-4-yl)carbonyl]pyrrolidin-3-one O-methyloxime] here?
**A.** 40 vol hot

**Q.** And the “Qualitative solubility, Dissolves in:” value ([2]; IPA, hot)?
**A.** 4 vol hot

**Q.** And the “Qualitative solubility, Dissolves in:” value ([2]; MIBK, hot)?
**A.** 4 vol hot

**Q.** And the “Qualitative solubility, Dissolves in:” value ([2]; THF, cold)?
**A.** 4 vol cold

**Q.** What about the “Qualitative solubility, Comment” value ([2]; heptanes) of the same compound?
**A.** insoluble in 20 vol

**Q.** What about the “Qualitative solubility, Dissolves in:” value ([2]; tBuOH, hot) of the same compound?
**A.** 6 vol hot

**Q.** And the “Qualitative solubility, Dissolves in:” value ([2]; toluene, cold)?
**A.** 2 vol cold

**Q.** What about the “[14C]-E-isomer present in plasma” value ([3]; 30 mg/kg oral or intravenous, plasma collected up to 6 hours) of the same compound?
**A.** no evidence

**Q.** What about the “isomeric interconversion in vivo” value ([3]; 30 mg/kg, after oral or intravenous dose administration) of the same compound?
**A.** no detectable isomeric interconversion

**Q.** And the “interconversion to E-isomer during dose preparation or administration” value [4]?
**A.** no detectable interconversion

**Q.** And the Ki (vasopressin V1a receptor)?
**A.** 120 nM
